What was measured:
IL-4Rα = test: Immunoblot of IL-4Rα in MG5 cells; format: cell-based, mouse; settings: 5 μM each, 48 h
Description: Primary microglia (type 1) were harvested from primary mixed glial cell cultures prepared from neonatal Wistar rat pups, as previously reported. Mouse microglial cell line MG5 and mouse glial cell line A1 were maintained as previously described. Mouse neuroblastoma cell line N1E-115 and Neuro 2a (American Type Culture Collection, Manassas, Va., USA) were maintained in Dulbecco's modified Eagle's medium (DMEM) supplemented with 10% fetal bovine serum (FBS), 20 U/ml penicillin (Invitrogen, Gaithersburg, Md., USA), and 20 μg/ml streptomycin (Invitrogen). Primary rat microglia were treated with Am80 (5 μM) and/or HX630 (5 μM) in the presence and absence of GW9662 (10 μM) for 48 h in Eagle's MEM supplemented with 10% FBS and 0.2% glucose. MG5 cells and A1 cells were treated with Am80 (5 μM) and/or HX630 (5 μM) for 48 h in DMEM containing 10% FBS. […]
Rat primary microglia and mouse microglial MG5 cells (5×10^6 cells per 100-mm dish) were homogenized in RIPA buffer [10 mM Hepes-NaOH (pH 7.4) containing 150 mM NaCl, 1 mM EDTA, 1% Triton X-100, 0.5% sodium deoxycholate, 0.1% SDS, 1 mM PMSF, 1 mg/ml leupeptin. […] Bound horseradish peroxidase-labeled antibodies were then detected via chemiluminescence (an ECL kit; Pierce, Rockford, Ill., USA). Protein concentrations were determined with the BCA Protein Assay Reagent (Pierce) and Bradford Protein Assay Reagent (Pierce).

[1] = system: RA response element (RARE); test: RARE luciferase reporter gene assay in MG5 cells; format: cell-based, mouse; settings: pGL3-RARE-Luc; 5 μM each, 24 h; fold induction relative to vehicle-treated cells
Method: MG5 cells (2×10^6 cells in 100 μl) were transfected by electroporation with 1.0 μg of pGL3-RARE-Luc (#13458; Addgene) or pGL3-Luc vector (Promega) and 0.25 μg of Renilla luciferase vector (phRL-TK) (Promega), using the Nucleofector transfection system (program #D-032; Amaxa) according to the manufacturer's protocol, taken up in the medium, and seeded in 48-well plates (1.25×10^5 cells/well). For some experiments, cells were transfected with 1.0 μg of pGL3-RARE-Luc or pGL3-Luc vector and 0.25 μg of phRL-TK in the presence of 0.25 μg each of pcDNA3.1-RAR (#16287; Addgene) and pcDNA3.1-RXR (#8882; Addgene). An empty pcDNA3.1 expression vector was used to maintain equal amounts of DNA for each transfection. Five hours after transfection, the cells were exposed to Am80 (5 μM) and/or HX630 (5 μM) in the medium for 24 h. Luciferase activities were determined in cell lysates. Firefly luciferase activity was normalized to that of Renilla luciferase for each well.

Row | Compound | IL-4Rα protein levels in MG5 cells (IL-4Rα) | RARE reporter activity in MG5 cells [1]
1 | CC1(C)CCC(C)(C)c2cc(NC(=O)c3ccc(C(=O)O)cc3)ccc21 [Am80, 4-{(5,6,7,8-tetrahydro-5,5,8,8-tetramethyl-2-naphthalenyl)carbamoyl}benzoic acid] | did not increase | 4.3 fold
2 | CN1c2ccccc2N=C(c2ccc(C(=O)O)cc2)c2cc3c(cc21)C(C)(C)CCC3(C)C [HX630, 4-[5H-2,3-(2,5dimethyl-2,5-hexano)-5-methyldibenzo[b,e]-diazepin-11-yl]benzoic acid] | did not increase | no increase

From patent publication US9861640B2, “Medicament for treatment of Alzheimer's disease” (KEMPHYS LTD., priority 2013, dated 2018)
